For data set [1], the system named is HT-29, SF-268, PC-3, MDA-MB-231. Kind of data set: Average GI50 over the four cell lines, method (a). The data set is classed as cell-based. The note with it: method (a); values > 30 not considered; read-out: Average (GI50 μM). The procedure:
(§1) Compounds were dissolved at 10 mM in DMSO. Dilution in vehicle to concentrations of 30, 10, 3, 1 and 0.3 μM were prepared immediately before assays. Depending on the cell line's growth characteristics, 4000-10000 cells were plated in two 96-wells pates (day 0) and incubated for 16 hours. The following day, propidium iodide was added to one of the two plates and fluorescence measured (Tz). Test compounds were added to the second plate, as well as vehicle control, and cells further incubated for 96 hours. Each compound was tested at each concentration and in triplicates. The equivalent cell number was determined after adding propidium iodide by measuring the signal by fluorescence (C for control).

Data set [2] in a line: Tissue concentrations 30 min after administration. It counts as in vivo, female Crl: CD1 mice. The conditions noted are these: 30 mg/kg. Here is the method: Compounds 1 and 2 were separately dissolved in ethanol (5%), Polysorbate 80 (15%), PEG 400 (5%) and dextrose (5%) at a final concentration of 6 mg/ml (for all parenteral administration routes). For oral administration, Compound 1 was solubilized in Cremophor® EU Ethanol (50%:50%) at a final concentration of 6 mg/ml. Prior to dosing, animals (female Crl: CD1 mice; 6 weeks of age, 22-24 g) were weighed, randomly selected and assigned to the different treatment groups. Compound 1 was administered by the intravenous (iv), subcutaneous (sc), intraperitoneal (ip), or oral (po) route to the assigned animals. Compound 2 was administered by the intravenous (iv), or intraperitoneal (ip) route to the assigned animals. The dosing volume of Compounds 1 and 2 was 5 mL per kg body weight. Animals were anesthetized with 5% isoflurane prior to bleeding. Blood was collected into microtainer tubes containing the anticoagulant K2EDTA by cardiac puncture from each of 4 animals per bleeding timepoint (2 min, 5 min, 15 min, 30 min, 1 h, 2 h, 4 h and 8 h). Following collection, the samples were centrifuged and the plasma obtained from each sample was recovered and stored frozen (at approximately −80° C.) pending analysis. […] Samples were analysed by LC/MS/MS. […]

In data set [3] the test system is 36 cancer cell lines. Kind of data set: Anticancer activity profiling against 36 cell lines (IC50). It counts as cell-based. Here is the method:
as §1

The subject of data set [4] is rat glioblastoma tumor (C6) xenografts. Put plainly: Antitumor efficacy against rat glioblastoma tumor (C6) xenografts. It counts as in vivo, female swiss nude mice. The note with it: intravenous, 75 mg/kg (qd5/2/qd5). The text has this: Antitumor efficacy of Compound 2 against rat glioblastoma tumor (C6) xenografts in female swiss nude mice was accomplished as described above.

Data set [5] can be described thus: in vivo.

Structures are written as SMILES. Where two headings read alike, the source gives them in different places. Bounds are passed on as bounds.

Usually GI50 stands for the concentration giving 50% growth inhibition. Take `CC(C)=CCC/C(C)=C/CC/C(C)=C/CN1C(=O)c2cccc(O)c2Nc2c(O)cc(O)cc21` [Compound 1, 10-farnesyl-4,6,8-trihydroxy-5,10-dihydrodibenzo[b,e][1,4]diazepin-11-one]: the GI50 in data set [1] stood at 4.23 µM. Moreover, the tissue distribution result in data set [2] (iv and ip dosing) is recorded as “well distributed”. For the same compound, in data set [2] (sc dosing, compared with ip), the tissue levels result is reported as “significantly lower”.

One may read the IC50 as the concentration needed to halve the response being measured. Usually NOAEL stands for the highest tested level that showed no adverse finding. For `CC(C)=CCC/C(C)=C/CC/C(C)=C/CN1C(=O)c2cccc(O)c2N(C)c2c(O)cc(O)cc21` [Compound 2, 10-farnesyl-4,6,8-trihydroxy-5-methyl-5,10-dihydro-dibenzo[b,e][1,4]diazepin-11-one], in data set [3] (36 tumor types), the “levels of IC50 values” is on record as “low micromolar to nanomolar”. Also, the IC50 worked out at 166 nM in data set [3] (Bladder, cell line 1218L (Xenograft), urothelial adeno ca, read-out: IC50); 127 nM in data set [3] (Bladder, cell line T24 (ATCC), transitional cell ca, read-out: IC50); 10 nM in data set [3] (CNS, cell line SF268 (NCI), read-out: IC50); 105 nM in data set [3] (Gastric, cell line 251L (Xenograft), adeno ca, pd, read-out: IC50); 181 nM in data set [3] (Head & Neck, cell line 536L (Xenograft), hypopharynx ca, read-out: IC50); 142 nM in data set [3] (Homo sapiens, 22Rv1, Prostate, cell line 22RV1 (ATCC), adeno ca, md, read-out: IC50). Also, the IC50 in data set [3] (Homo sapiens, CNS cell, CNS, cell line 498NL (Xenograft), glioblastoma, read-out: IC50) stood at 176 nM; in data set [3] (Homo sapiens, DU-145, Prostate, cell line DU145 (NCI), adeno ca, md, read-out: IC50) it was 158 nM; in data set [3] (Homo sapiens, HCT-116, Colon, cell line HCT116 (NCI), adeno ca, pd, read-out: IC50) it was 156 nM; in data set [3] (Homo sapiens, HT-29, Colon, cell line HT29 (NCI), adeno ca, pd, read-out: IC50), 223 nM; in data set [3] (Homo sapiens, LNCaP, Prostate, cell line LNCAP (DSMZ), adeno ca, md, read-out: IC50), 485 nM; in data set [3] (Homo sapiens, MCF7, Mammary, cell line MCF7 (NCI), mamma ca, read-out: IC50) it was 276 nM. For the same compound, the IC50 in data set [3] (Homo sapiens, NCI-H460, Lung, cell line H460 (NCI), large cell ca, read-out: IC50) was determined as 366 nM; in data set [3] (Homo sapiens, OVCAR-3, Ovarian, cell line OVCAR3 (NCI), adeno ca, md, read-out: IC50) it was 139 nM; in data set [3] (Homo sapiens, PANC-1, Pancreas, cell line PANC1 (ATCC), read-out: IC50), 125 nM; in data set [3] (Homo sapiens, PC-3M, Prostate, cell line PC3M (NCI), adeno ca, pd, read-out: IC50) it was 114 nM; in data set [3] (Lung, cell line 289L (Xenograft), adeno ca, read-out: IC50) it was 1550 nM; in data set [3] (Lung, cell line 526L (Xenograft), adeno ca, read-out: IC50), 104 nM. The 50% inhibitory concentration (IC50) in data set [3] (Lung, cell line 529L (Xenograft), large cell ca, read-out: IC50) came to 127 nM; in data set [3] (Lung, cell line 629L (Xenograft), adeno ca, read-out: IC50), 164 nM; in data set [3] (Lung, cell line 1121L (Xenograft), large cell ca, read-out: IC50), 125 nM; in data set [3] (Mammary, cell line 401NL (Xenograft), pap adeno ca, wd, read-out: IC50), 194 nM; in data set [3] (Melanoma, cell line 276L (Xenograft), mm, amelanotic, read-out: IC50), 1950 nM; in data set [3] (Melanoma, cell line 394NL (Xenograft), mm, amelanotic, pd, read-out: IC50) it was 20 nM. For the same compound, the IC50 in data set [3] (Melanoma, cell line 462NL (Xenograft), mm, amelanotic, read-out: IC50) turned out to be 978 nM; in data set [3] (Melanoma, cell line 514L (Xenograft), mm, melanotic, read-out: IC50), 110 nM; in data set [3] (Melanoma, cell line 520L (Xenograft), mm, melanotic, read-out: IC50), 85 nM; in data set [3] (Ovarian, cell line 899L (Xenograft), pap serous ca, md, read-out: IC50) it was 238 nM; in data set [3] (Ovarian, cell line 1619L (Xenograft), adeno ca, md, read-out: IC50) it was 579 nM; in data set [3] (Pancreas, cell line 1657L (Xenograft), adeno ca, md, read-out: IC50), 1780 nM. Also, the IC50 is 1500 nM in data set [3] (Pleuramesot., cell line 1752L (Xenograft), pleuromesothelioma, read-out: IC50); 527 nM in data set [3] (Renal, cell line 393NL (Xenograft), hypernephroma, wd, read-out: IC50); 1140 nM in data set [3] (Renal, cell line 486L (Xenograft), hypernephroma, pd, read-out: IC50); 230 nM in data set [3] (Renal, cell line 944L (Xenograft), hypernephroma, read-out: IC50); 172 nM in data set [3] (Renal, cell line 1781L (Xenograft), renal ca, read-out: IC50); 139 nM in data set [3] (Uterus, cell line 1138L (Xenograft), carcinosarcoma, wd, read-out: IC50). In data set [3] (mean of all 36 cell lines, read-out: IC50, Mean of all cell lines), the IC50 was found to be 407 nM. Besides, the Antitumor efficacy result in data set [4] was “Significant efficacy”. For the same compound, the NOAEL in data set [5] (CD-1 nu/nu, mouse, in vivo, ip) came out at 30 mg/kg; in data set [5] (CD-1 nu/nu, mouse, in vivo, iv) it was 75 mg/kg. Also, the MTD in data set [5] (CD-1 nu/nu, mouse, in vivo, ip, acute) is ≥ 50 mg/kg. Besides, in data set [5] (for several days post-injection), the weight losses entry is “about 7%”.

Source of the values: patent publication US20060079512A1, “Dibenzodiazepinone analogues, processes for their production and their use as pharmaceuticals” (Ecopia BioSciences, Inc., priority 2003, published 2006).
